Measured values reported in US8350048B2, “Amide compounds as boosters of antivirals” (Janssen R&D Ireland, priority 2007, dated 2013).

Experiments:
CYP3A4 [1] = target: T1, CYP3A4 (Homo sapiens, UniProt P08684); test: CYP450 inhibition CDNA-CYP3A4-BQ; settings: human, E. coli expressed CYP3A4, pH 7.4, probe BQ 60 μM
Description: (§1) Assay 4: CYP450 Inhibition

[2] = Toxicity, mock-infected MT4 CMV-EGFP cells; type: cell-based, human; settings: human, mock-infected MT4 CMV-EGFP cells; read-out: Toxicity MT4 (pCC50) (converted)
Description: (§2) Assay 1 &2: Antiviral Activity/Toxicity
Analogously, MT4 cells are engineered with GFP and the constitutional cytomegalovirus (CMV) promotor. […] Cytotoxic investigational compounds reduce GFP levels of mock-infected MT4 CMV-EGFP cells.
(§3) The ratio of CC50 to EC50 is defined as the selectivity index (SI) and is an indication of the selectivity of the anti-HIV activity of the inhibitor. The ultimate monitoring of HIV-1 infection and cytotoxicity is done using a scanning microscope. Image analysis allows very sensitive detection of viral infection. Measurements are done before cell necrosis, which usually takes place about five days after infection, in particular measurements are performed three days after infection.
(§4) A pEC50 value corresponds to −log10(EC50). A pCC50 value corresponds to −log10(CC50).

CYP2D6 = CYP2D6 (Homo sapiens, UniProt P10635); test: in vitro; settings: pH 7.4
Procedure: (§5) Inhibition of the metabolism of test compounds by different CYP P450 isoenzymes was determined using E. coli expressed proteins (3A4, 2C9, 2D6, 1A2, and 2C19) that convert their specific substrates into a fluorescent molecule (Table 6). This fluorescent molecule was measured using a fluorescent plate reader (Victor2 (Wallac) or Fluoroskan (Labsystems)). […] CYP P450 enzymes were prepared in house or commercially bought and stored at −80° C.
(§6) The assay was performed in black 96 well Costar plates. Test compounds were added to a CYP P450 enzyme solution in the presence of an NADPH generating system. After 5 min of preincubation at 37° C., the freshly prepared, phosphate buffered (pH 7.4) substrate solution was added. Known CYP P450 inhibitors were used as positive controls, negative controls were run without CYP P450 enzyme. […] Reaction mixtures were incubated at 37° C. for 30 min (CYP3A4-BFC), 30 min (CYP3A4-BQ), 10 min (CYP3A4-DBF), 15 min (CYP1A2-CEC), 30 min (CYP2C9-MFC, CYP2C19-CEC), or 45 min (CYP2D6-AMMC), respectively. Then, the reaction was stopped by the addition of 200 μl acetonitrile, and the fluorescent signal was detected.
(§7) Calculation of CYP P450 isoenzyme inhibition (% inh.):
(§8) % activity=(100/(average positive control−average negative control))×(average sample−average negative control)

[3] = test system: wild-type HIV-1IIIB strain; test: Antiviral activity, MT4 LTR-EGFP cellular assay; type: cell-based; settings: Human immunodeficiency virus 1, 72 h; wild-type HIV-1 IIIB, MT4 LTR-EGFP cells, three days after infection; read-out: Antiviral activity IIIB (pEC50) (converted)
Procedure: as §2
The compounds of the present invention were tested for antiviral activity in a cellular assay, which was performed according to the following procedure.
The human T-cell line MT4 is engineered with Green Fluorescent Protein (GFP) and an HIV-specific promoter, HIV-1 long terminal repeat (LTR). This cell line is designated MT4 LTR-EGFP, and can be used for the in vitro evaluation of anti-HIV activity of investigational compounds. In HIV-1 infected cells, the Tat protein is produced which upregulates the LTR promotor and finally leads to stimulation of the GFP reporter production, allowing measuring ongoing HIV-infection fluorometrically.
as §3, §4

CYP3A4 [4] = target: T1, CYP3A4; test: CYP450 inhibition CDNA-CYP3A4-BFC; settings: human, E. coli expressed CYP3A4, pH 7.4, probe BFC 150 μM
Description: as §1

CYP2C19 = CYP2C19 (Homo sapiens, UniProt P33261); test: in vitro; settings: E. coli expressed CYP2C19, pH 7.4, probe CEC 25 μM
Procedure: as §5, §6, §7, §8

CYP1A2 = target: T2, CYP1A2 (Homo sapiens, UniProt P05177); test: in vitro; settings: E. coli expressed CYP1A2, pH 7.4, probe CEC 5 μM
T2 sequence (P05177 1-516): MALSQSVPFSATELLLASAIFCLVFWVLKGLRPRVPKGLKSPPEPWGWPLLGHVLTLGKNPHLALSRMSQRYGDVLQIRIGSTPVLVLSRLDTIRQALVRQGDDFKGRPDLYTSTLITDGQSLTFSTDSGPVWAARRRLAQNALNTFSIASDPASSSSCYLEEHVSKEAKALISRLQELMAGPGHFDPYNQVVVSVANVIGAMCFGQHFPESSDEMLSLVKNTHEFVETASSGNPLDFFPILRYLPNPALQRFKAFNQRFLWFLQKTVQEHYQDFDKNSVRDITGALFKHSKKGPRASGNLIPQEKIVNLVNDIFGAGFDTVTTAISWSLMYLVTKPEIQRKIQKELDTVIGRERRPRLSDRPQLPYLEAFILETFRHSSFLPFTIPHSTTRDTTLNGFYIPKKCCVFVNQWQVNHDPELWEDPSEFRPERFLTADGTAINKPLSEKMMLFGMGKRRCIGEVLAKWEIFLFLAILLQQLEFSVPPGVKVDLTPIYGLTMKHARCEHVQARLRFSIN
Procedure: as §5, §6, §7, §8

[5] = Metabolic stability of test compounds (HLM15'); type: in vitro ADME, human; settings: pH 7.4; human liver microsomes 1 mg/ml, 5 μM test compound, 15 min; read-out: Metabolic stability (HLM, % recovery after 15')
Description: Human liver tissue is rinsed in ice-cold 0.1 M Tris-HCl (pH 7.4) buffer to wash excess blood. Tissue is then blotted dry, weighed and chopped coarsely using surgical scissors. The tissue pieces are homogenized in 3 volumes of ice-cold 0.1 M phosphate buffer (pH 7.4) using either a Potter-S (Braun, Italy) equipped with a Teflon pestle or a Sorvall Omni-Mix homogenizer, for 7×10 sec. In both cases, the vessel is kept in/on ice during the homogenization process. Tissue homogenates are centrifuged at 9000×g for 20 min at 4° C. using a Sorvall centrifuge or Beckman Ultracentrifuge. The resulting supernatant can be stored at −80° C. and is designated ‘S9’. The S9 fraction is centrifuged at 100,000×g for 60 min at 4° C. using a Beckman ultracentrifuge. The resulting supernatant is carefully aspirated, aliquoted and designated ‘cytosol’. The pellet is re-suspended in 0.1 M phosphate buffer (pH 7.4) in a final volume of 1 ml per 0.5 g original tissue weight and designated ‘microsomes’. All sub-cellular fractions are aliquoted, immediately frozen in liquid nitrogen and stored at −80° C. until use.
Heat-inactivated (10 min at 95° C.) ‘S9’ or microsomes were used for blank experiments. […] The reaction was incubated for 0 or 15 min. Next, the reaction was stopped by addition of 2 volumes of DMSO (or acetonitrile). Samples were centrifuged (10 min, 900×g) and analyzed by LC-MS.

CYP2C9 = CYP2C9 (Homo sapiens, UniProt P11712); test: in vitro; settings: human, pH 7.4
Description: as §1

CYP3A4 [6] = target: T1, CYP3A4; test: in vitro; settings: human, pH 7.4
Description: as §1

Sequence of CYP2C19 (P33261 whole entry): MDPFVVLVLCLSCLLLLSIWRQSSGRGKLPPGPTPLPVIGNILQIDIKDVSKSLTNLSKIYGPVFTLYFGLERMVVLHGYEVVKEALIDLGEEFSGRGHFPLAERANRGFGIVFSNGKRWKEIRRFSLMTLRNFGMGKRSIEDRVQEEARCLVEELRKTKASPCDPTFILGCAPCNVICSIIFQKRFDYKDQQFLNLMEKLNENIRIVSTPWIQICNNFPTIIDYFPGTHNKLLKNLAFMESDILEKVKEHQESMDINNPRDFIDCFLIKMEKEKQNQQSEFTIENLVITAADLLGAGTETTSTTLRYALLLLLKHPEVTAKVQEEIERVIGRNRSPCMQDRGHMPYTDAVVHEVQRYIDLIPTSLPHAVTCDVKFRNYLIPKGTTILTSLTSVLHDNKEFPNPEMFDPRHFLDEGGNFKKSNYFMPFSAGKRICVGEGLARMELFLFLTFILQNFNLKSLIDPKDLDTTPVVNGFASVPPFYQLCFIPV
T1 sequence (P08684 whole entry): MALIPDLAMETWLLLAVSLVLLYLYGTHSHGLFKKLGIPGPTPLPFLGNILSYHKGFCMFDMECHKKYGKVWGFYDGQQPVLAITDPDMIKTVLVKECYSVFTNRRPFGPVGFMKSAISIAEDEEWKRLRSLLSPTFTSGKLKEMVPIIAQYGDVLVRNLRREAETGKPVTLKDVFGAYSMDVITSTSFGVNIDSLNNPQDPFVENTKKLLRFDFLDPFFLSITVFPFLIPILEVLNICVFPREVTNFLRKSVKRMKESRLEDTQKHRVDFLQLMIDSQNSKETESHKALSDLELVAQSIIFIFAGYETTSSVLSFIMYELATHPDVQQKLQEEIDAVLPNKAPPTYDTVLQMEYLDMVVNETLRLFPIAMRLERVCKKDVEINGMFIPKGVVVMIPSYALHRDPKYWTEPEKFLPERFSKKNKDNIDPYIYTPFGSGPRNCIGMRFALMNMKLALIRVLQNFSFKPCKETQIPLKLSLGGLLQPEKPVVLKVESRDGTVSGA
Sequence of CYP2D6 (P10635 whole entry): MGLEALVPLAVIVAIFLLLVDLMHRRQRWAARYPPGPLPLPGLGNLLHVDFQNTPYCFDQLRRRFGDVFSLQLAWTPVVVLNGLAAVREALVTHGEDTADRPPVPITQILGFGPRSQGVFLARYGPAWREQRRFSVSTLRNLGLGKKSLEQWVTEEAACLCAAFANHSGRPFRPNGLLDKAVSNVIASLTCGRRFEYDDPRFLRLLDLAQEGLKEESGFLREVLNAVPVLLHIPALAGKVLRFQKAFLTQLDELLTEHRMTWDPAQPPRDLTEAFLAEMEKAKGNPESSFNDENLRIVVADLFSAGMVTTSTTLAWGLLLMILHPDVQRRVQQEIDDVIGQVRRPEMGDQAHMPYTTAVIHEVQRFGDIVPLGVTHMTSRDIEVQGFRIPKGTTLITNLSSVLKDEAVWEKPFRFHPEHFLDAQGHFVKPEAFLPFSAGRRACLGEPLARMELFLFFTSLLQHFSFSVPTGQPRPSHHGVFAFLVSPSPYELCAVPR
Sequence of CYP2C9 (P11712 whole entry): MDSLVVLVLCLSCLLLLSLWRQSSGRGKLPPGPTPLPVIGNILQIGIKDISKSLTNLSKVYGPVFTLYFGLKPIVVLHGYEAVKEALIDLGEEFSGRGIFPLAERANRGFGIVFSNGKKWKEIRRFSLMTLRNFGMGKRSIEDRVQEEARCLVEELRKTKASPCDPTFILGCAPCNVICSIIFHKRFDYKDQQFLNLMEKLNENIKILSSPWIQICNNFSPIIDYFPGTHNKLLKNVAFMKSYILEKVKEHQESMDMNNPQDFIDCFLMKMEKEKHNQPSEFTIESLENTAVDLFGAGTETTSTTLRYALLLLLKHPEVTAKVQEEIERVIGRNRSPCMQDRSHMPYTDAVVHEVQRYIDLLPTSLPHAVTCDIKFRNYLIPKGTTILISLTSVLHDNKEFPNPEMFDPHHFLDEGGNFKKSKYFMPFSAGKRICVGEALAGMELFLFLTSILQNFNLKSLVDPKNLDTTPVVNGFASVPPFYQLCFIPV

| Structure (SMILES) | inhibition at 30 min, 10 μM (CYP3A4 [1]) [%] | CC50 at 3 days [2] [µM] | inhibition at 45 min, 10 μM (CYP2D6) [%] | EC50 [3] [µM] | inhibition at 30 min, 10 μM (CYP3A4 [4]) [%] | inhibition at 30 min, 10 μM (CYP2C19) [%] | inhibition at 15 min, 10 μM (CYP1A2) [%] | recovery at 15 min, 5 μM [5] [%] | inhibition at 30 min, 10 μM (CYP2C9) [%] | inhibition at 10 min, 10 μM (CYP3A4 [6]) [%] |
| --- | --- | --- | --- | --- | --- | --- | --- | --- | --- | --- |
| CC(C)CN(C[C@@H](O)[C@H](Cc1ccccc1)NC(=O)OCc1cncs1)C(=O)c1ccc2nc(NCCN(C)C)oc2c1 [Compound C16, Thiazol-5-ylmethyl (2S,3R)-4-(2-(2-(dimethylamino)ethylamino)-N-isobutyl-benzo[d]oxazole-6-carboxamido)-3-hydroxy-1-phenylbutan-2-ylcarbamate] | 80 | > 100 | 89 | > 100 | 93 | 36 | 0 | 59 | 34 | 91 |
| Cc1nc2ccc(C(=O)N(CC(C)C)C[C@@H](O)[C@H](Cc3ccccc3)NC(=O)OCc3cncs3)cc2o1 [Compound C40, Thiazol-5-ylmethyl (2S,3R)-3-hydroxy-4-(N-isobutyl-2-methylbenzo[d]-oxazole-6-carboxamido)-1-phenylbutan-2-ylcarbamate] | 74 | > 100 | 56 | > 100 | 94 | 79 | 0 | 60 | 89 | 91 |
| CC(C)CN(C[C@@H](O)[C@H](Cc1ccccc1)NC(=O)OCc1cncs1)C(=O)c1ccc2nc(N3CCN(C)CC3)oc2c1 [Compound C15, Thiazol-5-ylmethyl (2S,3R)-3-hydroxy-4-(N-isobutyl-2-(4-methylpiperazin-1-yl)benzo[d]oxazole-6-carboxamido)-1-phenylbutan-2-ylcarbamate] | 79 | > 100 | 97 | > 100 | 98 | 67 | 18 | 25 | 96 | 93 |
| C#CCN(C[C@@H](O)[C@H](Cc1ccccc1)NC(=O)OCc1cncs1)C(=O)c1ccc2nc(N(C)CC)oc2c1 [Compound C35, Thiazol-5-ylmethyl (2S,3R)-4-(2-(ethyl(methyl)amino)-N-(prop-2-ynyl)benzo[d]oxazole-6-carboxamido)-3-hydroxy-1-phenylbutan-2-ylcarbamate] | 76 | 75.9 | 59 | 60.3 | 96 | 101 | 7 | 57 | 96 | 96 |
| CC(C)CN(C[C@@H](O)[C@H](Cc1ccccc1)NC(=O)OCc1cncs1)C(=O)c1ccc2nc(N)sc2c1 [Compound C6, Thiazol-5-ylmethyl (2S,3R)-4-(2-amino-N-isobutylbenzo[d]thiazole-6-carboxamido)-3-hydroxy-1-phenylbutan-2-ylcarbamate] | 85 | > 93.3 | 83 | 75.9 | 76 | 94 | 36 | 70 | 99 | 94 |
| CC(C)CN(C[C@@H](O)[C@H](Cc1ccccc1)NC(=O)OCc1cncs1)C(=O)c1ccc2ncn(C)c2c1 [Compound C8, Thiazol-5-ylmethyl (2S,3R)-3-hydroxy-4-(N-isobutyl-1-methyl-1H-benzo[d]-imidazole-6-carboxamido)-1-phenylbutan-2-ylcarbamate] | 72 | > 100 | 12 | > 100 | 81 | 75 | 4 | 57 | 92 | 93 |
| CCN(C[C@@H](O)[C@H](Cc1ccccc1)NC(=O)OCc1cncs1)C(=O)c1ccc2nc(N(C)CC)oc2c1 [Compound C29, Thiazol-5-ylmethyl (2S,3R)-4-(N-ethyl-2-(ethyl(methyl)amino)benzo[d]-oxazole-6-carboxamido)-3-hydroxy-1-phenylbutan-2-ylcarbamate] | 77 | 81.3 | 32 | > 100 | 90 | 97 | 6 | 58 | 99 | 94 |
| CC(C)CN(C[C@@H](O)[C@H](Cc1ccccc1)NC(=O)OCc1cncs1)C(=O)c1ccc2nc(N3CCCCC3)oc2c1 [Compound C3, Thiazol-5-ylmethyl (2S,3R)-3-hydroxy-4-(N-isobutyl-2-(piperidin-1y1)-benzo[d]oxazole-6-carboxamido)-1-phenylbutan-2-ylcarbamate] | 80 | 32.4 | 45 | 36.3 | 95 | 90 | 19 | 71 | 100 | 95 |
| CCN(C)c1nc2ccc(C(=O)N(CC(C)C)C[C@@H](O)[C@H](Cc3ccccc3)NC(=O)OCc3ccncc3)cc2o1 [Compound C10, Pyridin-4-ylmethyl (2S,3R)-4-(2-(ethyl(methyl)amino)-N-isobutylbenzo[d]-oxazole-6-carboxamido)-3-hydroxy-1-phenylbutan-2-ylcarbamate] | 71 | 46.8 | 99 | 49 | 91 | 70 | 18 | 13 | 93 | 95 |
